Where two headings read alike, the source gives them in different places. No end group written: not given here.
What was measured:
MRSA 43484 = assay: AAMP assay and checkerboard synergy; type: cell-based, Staphylococcus aureus; details: for MIC: Staphylococcus aureus, 24 h, read-out: MIC, single antimicrobial
Description: (§1) Antimicrobial activity was measured using the AAMP assay (Wiegand et al., 2008, Nat. Protoc., Vol. 3(2), p 163-175).
(§2) Synergy testing was done with a microtiter plate checkerboard assay as previously described (Orhan et al., 2005, J. Clin. Microbiol., Vol. 43(1), p 140-143). Briefly, equal amounts of antimicrobial A were applied on microtiter plate 1 in wells A1-H1 and then diluted two-fold to wells 2-12. Similarly, equal amounts of antimicrobial B were applied on microtiter plate 2 in wells A1-A12 and diluted two-fold in wells B-H. Volumes of 50 μl of antimicrobial A from each well of microtiter plate 1 were transferred into microtiter plate 3, except for wells H1-H12. Similarly, the same volumes were transferred from microtiter plate 2 into plate 3, except for wells A1-A8. A 100 μl volume of 25 times diluted ON bacterial culture of MRSA was transferred into each well of plate 3. A 50 μl volume of pure broth was added into each well in lines H1-H12 and A1-A8 which were used to estimate MIC values of pure substances (blank).
(§3) Three-component synergy was assessed by mixing the three components (100 μg of PenG, 50 μg of GarKS and 2.5 μg of MP1) into one well of a microtiter plate, compared with activity of individual antimicrobials on the same plate. The fractional inhibition concentration (FIC) which was used to define synergy was calculated as set forth in Example 1.

MRSA ATCC 33591-lux = assay: AAMP assay and checkerboard synergy; type: cell-based, Staphylococcus aureus; details: for MIC: Staphylococcus aureus, 24 h, read-out: MIC, single antimicrobial
Description: as §1, §2, §3

MRSA USA-300 = assay: AAMP assay and checkerboard synergy; type: cell-based, Staphylococcus aureus; details: for MIC: Staphylococcus aureus, 24 h, read-out: MIC, single antimicrobial
Description: as §1, §2, §3

[1] = test system: three MRSA strains (ATCC33591-lux, USA-300 and MRSA 43484); assay: AAMP assay and checkerboard synergy, summary; type: cell-based, Staphylococcus aureus; details: for MIC: Staphylococcus aureus, 24 h, read-out: MIC, single antimicrobial; for synergy with GarKS: checkerboard assay
Description: as §2, with “Briefly,” for “Synergy testing was done with a microtiter plate checkerboard assay as previously described (Orhan et al., 2005, J. Clin. Microbiol., Vol. 43(1), p 140-143). Briefly,”, “A 100 μl volume of 25 times diluted ON bacterial culture of MRSA was transferred into each well of plate 3.” left out
Three-component synergy was assessed by mixing the three components (100 μg of PenG, 50 μg of GarKS and 2.5 μg of MP1) into one well of a microtiter plate, compared with activity of individual antimicrobials on the same plate.

S. aureus LMG3266 = assay: AAMP assay (MIC), single components and formulation mixture; type: cell-based, Staphylococcus aureus
Description: as §1, §3

S. aureus LMG3265 = assay: as above; type: cell-based, Staphylococcus aureus; details: Staphylococcus aureus, LMG3265, 24 h; read-out: MIC, single component
Description: as §1, §3

S. aureus LMG3271 = assay: as above; type: cell-based, Staphylococcus aureus; details: Staphylococcus aureus, LMG3271, 24 h; read-out: MIC, single component
Description: as §1, §3

S. aureus LMG3307 = assay: as above; type: cell-based, Staphylococcus aureus; details: Staphylococcus aureus, LMG3307, 24 h; read-out: MIC, single component
Description: as §1, §3

S. aureus LMG3322 = assay: as above; type: cell-based, Staphylococcus aureus; details: Staphylococcus aureus, LMG3322, 24 h; read-out: MIC, single component
Description: as §1, §3

S. aureus LMG3242 = assay: as above; type: cell-based, Staphylococcus aureus
Description: as §1, §3

S. aureus LMG3314 = assay: as above; type: cell-based, Staphylococcus aureus; details: Staphylococcus aureus, LMG3314, 24 h; read-out: MIC, single component
Description: as §1, §3

S. aureus LMG3255 = assay: as above; type: cell-based, Staphylococcus aureus
Description: as §1, §3

S. aureus LMG3263 = assay: as above; type: cell-based, Staphylococcus aureus
Description: as §1, §3

S. aureus LMG3026 = assay: as above; type: cell-based, Staphylococcus aureus; details: Staphylococcus aureus, LMG3026, 24 h; read-out: MIC, single component
Description: as §1, §3

S. aureus LMG3328 = assay: as above; type: cell-based, Staphylococcus aureus; details: Staphylococcus aureus, LMG3328, 24 h; read-out: MIC, single component
Description: as §1, §3

S. aureus LMG3258 = assay: as above; type: cell-based, Staphylococcus aureus; details: Staphylococcus aureus, LMG3258, 24 h; read-out: MIC, single component
Description: as §1, §3

S. aureus LMG3264 = assay: as above; type: cell-based, Staphylococcus aureus
Description: as §1, §3

[2] = test system: S. pseudintermedius MRSP 45; assay: microbe, parasite or virus in culture; type: cell-based, Staphylococcus pseudintermedius; details: for MIC: Staphylococcus pseudintermedius, read-out: MIC, single component
Description: as §1, §2
(§4) Antimicrobial activity was measured using the AAMP assay as described in Example 2.
(§5) Synergy testing was performed as in Example 2.

MRSA ATCC 33591 = assay: microbe, parasite or virus in culture; type: cell-based, Staphylococcus aureus; details: for MIC: Staphylococcus aureus, 24 h, read-out: MIC, single antimicrobial
Description: as §1, §2, §4, §5

[3] = Staphylococcus aureus, LMG3255, 24 h; read-out: MIC, single component
[4] = Staphylococcus aureus, LMG3263, 24 h; read-out: MIC, single component
[5] = Staphylococcus aureus, LMG3264, 24 h; read-out: MIC, single component

Compound	MIC of the antimicrobial in comb. with GarKS (MRSA 43484; MRSA 43484)	MIC of the antimicrobial in comb. with GarKS (MRSA ATCC 33591-lux; MRSA ATCC 33591-lux)	MIC of the antimicrobial in comb. with GarKS (MRSA USA-300; MRSA USA-300)	MIC (S. aureus LMG3265)	MIC (S. aureus LMG3271)	MIC (S. aureus LMG3307)	MIC (S. aureus LMG3322)	MIC (S. aureus LMG3026)	MIC ([2]; MRSP45, MRSP 45, 24 h, Table 8)	MIC of MP1 in comb. with the labelled antimicrobial (MRSA ATCC 33591)	MIC of the labelled antimicrobial in comb. with MP1 (MRSA ATCC 33591)	MIC (MRSA ATCC 33591)	also measured
CC1(C)S[C@@H]2[C@H](NC(=O)[C@H](N)c3ccccc3)C(=O)N2[C@H]1C(=O)O [Amp, Ampicillin]	16 µg/mL	16 µg/mL	16 µg/mL										MIC (MRSA 43484; MRSA 43484): < 2500 µg/mL; MIC (MRSA ATCC 33591-lux): < 2500 µg/mL; MIC (MRSA USA-300; MRSA USA-300): < 2500 µg/mL; MIC of the antimicrobial in comb. with GarKS ([1]; All three strains): 16 µg/mL; MIC of the component when combined ([1]; GarKS with Amp or PenG): 16 µg/mL; MIC ([1]; All three strains): > 2500 µg/mL; synergy with GarKS [1]: moderate synergy
CC[C@H]1OC(=O)[C@H](C)[C@@H](O[C@H]2C[C@@](C)(OC)[C@@H](O)[C@H](C)O2)[C@H](C)[C@@H](O[C@@H]2O[C@H](C)C[C@H](N(C)C)[C@H]2O)[C@](C)(O)C[C@@H](C)C(=O)[C@H](C)[C@@H](O)[C@]1(C)O [Ery, Erythromycin]	32 µg/mL	62 µg/mL	16 µg/mL	> 2500 µg/mL	< 2.5 µg/mL	< 2.5 µg/mL	< 2.5 µg/mL	< 2.5 µg/mL	> 250 µg/mL				MIC (S. aureus LMG3266; Staphylococcus aureus, LMG3266, 24 h; read-out: MIC, single component): > 2500 µg/mL; MIC (S. aureus LMG3242; Staphylococcus aureus, LMG3242, 24 h; read-out: MIC, single component): < 2.5 µg/mL; MIC (S. aureus LMG3314): < 2.5 µg/mL; MIC (S. aureus LMG3255; [3]): < 2.5 µg/mL; MIC (S. aureus LMG3263; [4]): > 2500 µg/mL; MIC (S. aureus LMG3328): < 2.5 µg/mL; MIC (S. aureus LMG3258): < 2.5 µg/mL; MIC (S. aureus LMG3264; [5]): < 2.5 µg/mL; MIC (MRSA 43484; MRSA 43484): 62 µg/mL; MIC, single antimicrobial (MRSA ATCC 33591-lux; MRSA ATCC 33591-lux): >250 µg/mL; MIC (MRSA ATCC 33591-lux; MRSA ATCC 33591-lux): > 250 µg/mL; MIC (MRSA USA-300; MRSA USA-300): 31 µg/mL; MIC of the antimicrobial in comb. with GarKS ([1]; All three strains): 16 to 62 µg/mL; synergy with GarKS [1]: no synergy or only additive effects
CC(C)=CCCC(C)=CCCC(C)=CCO [Farnesol]										0.08 µg/mL	14 µg/mL	56 µg/mL	
CC(=O)O[C@H]1C[C@@]2(C)[C@@H](C[C@@H](O)[C@H]3[C@@]4(C)CC[C@@H](O)[C@@H](C)[C@@H]4CC[C@@]32C)/C1=C(\CCC=C(C)C)C(=O)O [Fusidic acid]									1.25 µg/mL	0.15 µg/mL	0.04 µg/mL	0.6 µg/mL	
NC[C@H]1O[C@H](O[C@H]2[C@H](O)[C@@H](O[C@H]3O[C@H](CO)[C@@H](O)[C@H](N)[C@H]3O)[C@H](N)C[C@@H]2N)[C@H](O)[C@@H](O)[C@@H]1O [Kan, Kanamycin]	32/32 μg/ml		32/32 μg/ml	64 µg/mL	64 µg/mL	64 µg/mL	64 µg/mL	16 µg/mL					MIC (S. aureus LMG3266; Staphylococcus aureus, LMG3266, 24 h, read-out: MIC, single component): > 125 µg/mL; MIC (S. aureus LMG3242; Staphylococcus aureus, LMG3242, 24 h, read-out: MIC, single component): > 125 µg/mL; MIC (S. aureus LMG3314): 64 µg/mL; MIC (S. aureus LMG3255; Staphylococcus aureus, LMG3255, 24 h, read-out: MIC, single component): > 125 µg/mL; MIC (S. aureus LMG3263; Staphylococcus aureus, LMG3263, 24 h, read-out: MIC, single component): > 125 µg/mL; MIC (S. aureus LMG3328): 32 µg/mL; MIC (S. aureus LMG3258): 125 µg/mL; MIC (S. aureus LMG3264; Staphylococcus aureus, LMG3264, 24 h, read-out: MIC, single component): > 125 µg/mL; MIC ([2]; MRSP45, 24 h): > 1250 µg/mL; MIC (MRSA 43484; MRSA): > 125 µg/mL; MIC (MRSA ATCC 33591-lux; MRSA ATCC 33591-lux): > 125 µg/mL; MIC (MRSA USA-300; MRSA): > 125 µg/mL; MIC, single antimicrobial ([1]; All three strains): >125 µg/mL; MIC ([1]; All three strains): > 125 µg/mL
CN(C)[C@@H]1C(O)=C(C(N)=O)C(=O)[C@@]2(O)C(O)=C3C(=O)c4c(O)cccc4[C@@](C)(O)[C@H]3C[C@@H]12 [Tet, Tetracycline]	0.6 µg/mL	38 µg/mL	0.6 µg/mL	2.4 µg/mL	2.4 µg/mL	0.6 µg/mL	< 0.3 µg/mL	77 µg/mL	150 µg/mL	0.08 µg/mL	10 µg/mL	150 µg/mL	MIC (S. aureus LMG3255; [3]): 2.4 µg/mL; MIC (S. aureus LMG3263; [4]): 2.4 µg/mL; MIC (S. aureus LMG3264; [5]): 2.4 µg/mL
C=C(NC(=O)[C@@H](NC(=O)[C@H](Cc1c[nH]cn1)NC(=O)[C@@H](NC(=O)[C@H](CO)NC(=O)[C@@H]1CS[C@@H](C)[C@H]2NC(=O)[C@H](C)NC(=O)[C@H](NC(=O)[C@H](CCCCN)NC(=O)[C@H](CCSC)NC(=O)[C@H](CC(N)=O)NC(=O)[C@@H]3CS[C@@H](C)[C@@H](NC(=O)[C@H](CCCCN)NC(=O)[C@@H]4CS[C@@H](C)[C@@H](NC(=O)[C@@H]5CSC[C@@H](NC(=O)/C(=C/C)NC(=O)[C@@H](N)[C@@H](C)CC)C(=O)N[C@@H]([C@@H](C)CC)C(=O)NC(=C)C(=O)N[C@@H](CC(C)C)C(=O)N5)C(=O)N5CCC[C@H]5C(=O)NCC(=O)N4)C(=O)NCC(=O)N[C@@H](C)C(=O)N[C@@H](CC(C)C)C(=O)N[C@@H](CCSC)C(=O)NCC(=O)N3)[C@H](C)SC[C@H](NC2=O)C(=O)N[C@@H](CC(N)=O)C(=O)N1)[C@@H](C)CC)C(C)C)C(=O)N[C@@H](CCCCN)C(=O)O [nisinZ]										0.3 µg/mL	0.8 µg/mL		MIC, single antimicrobial (MRSA ATCC 33591): >12.5 µg/mL
MIKKFPNPYTLAAKLTTYEINWYKQQYGRYPWERPVA [EJ97 short]													MIC, single component ([2]; 24 h): >25 µg/mL

Source: US20240041976A1, “COMPOSITION AND USE” (priority 2020, published 2024)
